Measurements published in patent US20150374784A1, “COMPOSITIONS AND METHODS FOR REDUCING GERM CELL DEATH” (Los Angeles Biomedical Research Institute at Harbor-UCLA …, priority 2014, published 2015).
Entries after “also recorded” stand apart in the source; their conditions may differ.

Tests used:
[1] = system: sperm; assay: Cauda epididymal sperm count after multiple doses of CP in mice; format: in vivo, mouse; conditions: 28 days; HNG 10 mg/kg BW daily subcutaneously; CP 150 mg/kg BW IP, 6 doses at 5-day intervals
Procedure: (§1) The objective of this study was to investigate whether HNG has protective effect on sperm output after multiple doses of CP in mice. Thirty adult male mice (C57BL/6J) were randomized into 4 groups: 1) 5 as control; 2) 5 received daily subcutaneously injection of HNG (10 mg/kg BW); 3) 10 were given 6 doses of CP (150 mg/kg BW) intraperitoneally at 5-day intervals; 4) 10 received both HNG and CP. All mice were killed at 28 days. Plasma HNG and IGF-1 levels were measured by ELISAs. The cauda epididymal sperm count was performed using a hemocytometer.

[2] = system: 4T1 cells; assay: 4T1 mouse mammary cancer model, tumor size and weight; conditions: in vivo
Procedure: A mouse mammary cancer model was used which utilizes 4T1 cells transfected with the luciferase gene. Growth and size of 4T1 mammary tumors were detected by bioluminescence imaging (IVIS Luminia II, Perkin Elmer, Waltham, Mass.). Mice (n=5 to 7 per group) were inoculated with 1×10^6 4 T1 cells into the right third mammary gland, and 7 days later they were left untreated or treated with HNG (5 mg/kg/day IP), CP (100 mg/Kg single IP) or HNG+CP for 14 days. Bioluminescence imaging was conducted at days 7 and 12. Animals were sacrificed and tumors were removed on day 14 after the start of treatment. Mammary tumors were smaller in CP and CP+HNG groups compared to the untreated and HNG-treated animals (Data images not shown).

[3] = system: IGF-1; assay: Plasma IGF-1 in mice bearing metastatic lung melanomas; format: in vivo, mouse; conditions: 14 days; HNG 5 mg/kg/day IP; CP 200 mg/kg IP single injection
[4] = system: B16 murine melanoma cells; assay: Metastatic lung tumors in mouse B16 melanoma model (Experiments 3 and 4); format: in vivo
Procedure: (§2) A total of 25 young adult mice (10-12 weeks) were randomly divided into 5 groups (n=5 per group). Five mice were used as control. Twenty mice were inoculated intravenously with B16 murine melanoma cells (2×10^5 cells/mouse). Among these 20 tumor-inoculated mice, 5 mice received no further treatment. After one week, the remaining 15 mice were divided into 3 groups and injected with: 1) HNG daily IP (5 mg/Kg body weight) for 2 weeks; 2) CP (200 mg/Kg body weight IP single injection); 3) combined CP with HNG treatment (same doses as above). All mice were sacrificed 3 weeks after tumor inoculation, and 2 weeks after HNG and/or CP treatment. The animals were sacrificed with 5% pentobarbital (200 mg/kg body weight) IP injection after which blood was collected from the right atrium of the heart. One of the testes from each mouse was immersed fixed in Bouin's solution, and the mice were perfused with saline and subsequently perfuse-fixed with 5% glutaraldehyde in 0.05 M cacodylate buffer (pH 7.4). The lungs were dissected out and post fixed in 5% glutaraldehyde solution for 24 hours and stored in cacodylate buffer at 4° C. for the subsequent tumor count (Lue, et al., 2010; Lue, et al., 2009).
Experiment 3 was repeated after inoculation of B16 melanoma tumor at week 1 and then treated with the following treatment starting at week 2 (n=5 mice per group): 1). No treatment; 2). HNG IP injections 5 mg/Kg daily; 3) CP 200 mg/Kg single IP injection; 4) HNG 5 mg/Kg/day+CP; 5). HNG IP injections 15 mg/Kg daily; and 6). HNG 15 mg/Kg/day+CP. All animals were euthanized and perfused with 4% paraformaldehyde at the end of week 3. Lungs and testes were collected and processed as in experiment 3.
B16 melanoma tumors in the lung were quantified by counting the number of tumors on the surface of the lungs under stereomicroscopy (Collisson, et al., 2003; Craft, et al., 2005). The size of the tumor was measured using histomorphometry and expressed as average size of tumor. The appearance of the melanoma cells were reviewed and characterized by an expert pathologist.

[5] = system: ovaries; format: in vivo; conditions: day 14; HNG 5 mg/kg/day IP; CP 100 mg/Kg single IP
Procedure: A mouse mammary cancer model was used which utilizes 4T1 cells transfected with the luciferase gene. Growth and size of 4T1 mammary tumors were detected by bioluminescence imaging (IVIS Luminia II, Perkin Elmer, Waltham, Mass.). Mice (n=5 to 7 per group) were inoculated with 1×10^6 4 T1 cells into the right third mammary gland, and 7 days later they were left untreated or treated with HNG (5 mg/kg/day IP), CP (100 mg/Kg single IP) or HNG+CP for 14 days. Animals were sacrificed and both ovaries were removed from each mouse on day 14 after the start of treatment. Serial 5-micrometer sections were made. Every 5th section was examined and the number of primordial, primary, and secondary follicles counted (Kim S Y, et al., 2013; Bristol-Gould S K, et al., 2006; Roti Roti E C, et al., 2012). In addition, TUNEL staining for apoptotic cells and oocytes was quantified (Perez G I, et al., 1997; Ben-Aharon I, et al., 2010).

[6] = system: male germ cells; format: in vivo; conditions: B16 tumor-bearing mice
Procedure: as §2

[7] = system: Ki-67 antigen; assay: Immunohistochemistry of lung metastases: Ki-67; format: in vivo, mouse; conditions: CP 200 mg/kg single IP, HNG 5 mg/kg daily IP 14 days
Procedure: (§3) Methods: Adult male mouse (n=5/group) were seeded with mouse B16 melanoma cells (100,000 cells/mouse) via tail vein on day 1. One week after melanoma cell inoculation, mice were treated either with a single intraperitoneal injection (IP) of CP (200 mg/kg), or daily IP injections of HNG (5 mg/kg), or both for 14 days. Mice were sacrificed at day 21 and lungs were fixed in formaldehyde. Immunohistochemistry was performed on lung metastases with antibodies against phosphorylated-AMPK (p-AMPK), p-4E-BP1 (downstream effector of mTOR) and Ki-67 antigen (a marker of cell proliferation).

[8] = system: IGF-1; assay: Plasma IGF-1 levels by ELISA after multiple doses of CP; format: in vivo, mouse; conditions: 28 days; HNG 10 mg/kg BW daily subcutaneously; CP 150 mg/kg BW IP, 6 doses
Procedure: as §1

[9] = system: mouse B16 melanoma cells; assay: Number of metastatic lung tumors, B16 melanoma (Example 9); format: in vivo; conditions: day 21; CP 200 mg/kg single IP; HNG 5 mg/kg daily IP 14 days
Procedure: as §3

[10] = Experiment 4, vs non-treated, HNG at both 5 mg/kg BW and 15 mg/kg BW, CP 200 mg/Kg

O=P1(N(CCCl)CCCl)NCCCO1 (centres unmarked) [CP, cyclophosphamide monohydrate]
cauda epididymal sperm count [1]: 0.5±0.1 ×10^6/mg
mammary tumor size (bioluminescence imaging) [2]: smaller
plasma IGF-1 levels [3]: modestly suppressed IGF-1
size of the melanoma metastasis on the surface of the lungs ([4]; Experiment 3, vs non-treated tumor-bearing mice): decreased number of tumors but also tumor size
number of metastatic tumors on the surface of the lungs ([4]; Experiment 3, vs non-treated tumor-bearing mice, HNG 5 mg/Kg daily IP 2 weeks, CP 200 mg/Kg single IP): decreased number of tumors
number of lung tumors [4, 10]: significantly decreased both the number and size of the tumors
size of the lung tumors [4, 10]: significantly decreased both the number and size of the tumors
histology of metastatic lung melanoma cells ([4]; HNG 5 mg/kg BW, CP, or both, monohydrate): decreased the number of metastatic melanoma cells; also recorded: induced minor differentiation of melanoma cells
ovarian follicles in representative sections [5]: have less secondary, but more atretic follicles
testis weight ([6]; 2 weeks after CP 200 mg/Kg single IP): significantly decreased the testis weight
germ cell apoptosis (percent of seminiferous tubules containing apoptotic germ cells) ([6]; 2 weeks after treatment, CP 200 mg/Kg single IP, HNG 5 mg/Kg daily IP): significantly increased germ cell apoptosis
mean Ki-67 index [7]: 30.0±16.2
plasma IGF-1 levels [8]: 182.4 ± 10.5 ng/mL
decrease in number of metastatic lung tumors compared to non-treated mice [9]: ~50%
